According to patent publication US20210186860A1, “Improved Delivery Systems for Moieties Including CBD Enhanced Combinations, Formulations and Chimeras” (LIFE TECH GLOBAL, LLC, priority 2017, published 2021):

Test: Transdermal flux / transdermal delivery from patch
Type: in vitro ADME
Settings: enhancer at 3% in PIB adhesive

SMILES | transdermal delivery from PIB
CCCCCCCCCCCCN1CCCCCC1=O [Azon] | double
CCCCCCCC/C=C\CCCCCCCC(=O)O [oleic acid] | double
